In PubChem BioAssay AID2286 (Southern Research Specialized Biocontainment Screening …, 2010):
Active and inactive are the calls of the source.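 How the source made its calls: active means minimum cell viability of 80% or lower across the dose range, counted as toxic; inactive means minimum cell viability above 80%.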

Experiment: viability loss in fusion assay cells – cell-based, MAGI and MAGI-HeLa co-culture, cytotoxicity control for HIV-1 fusion inhibitor project, dose response (AID 2286);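 further: cells exposed to compound for at least 64 h before ATP readout; 100% = median of DMSO vehicle wells with no ATP signal meaning 0%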
Details: MAGI-CCR5 cells viability, CellTiter-Glo ATP luminescence; for minimum viability: measured here: MAGI minimum viability across doses
[1] = MAGI-HeLa co-culture viability, at 50 µM, stronger effect = lower value
[2] = at 12.5 µM, stronger effect = lower value
[3] = at 3.13 µM, stronger effect = lower value
[4] = at 1.56 µM, stronger effect = lower value

SMILES	viability [1] [%]	viability (at 50 µM (top of the series))	minimum viability (at 50 µM, stronger effect = lower value) [%]	also measured
COc1cc(/C=C2\C(=N)N3N=C(S(C)(=O)=O)SC3=NC2=O)cc(OC)c1OCCOc1cccc(C)c1	120	82.5% (inactive)	82.5	–
Cc1ccccc1N=C1NC(=O)/C(=C/c2cccn2-c2cccc(C(=O)O)c2)S1	90	94.2% (inactive)	–	minimum viability [2]: 86.3%
COc1cc(/C=C2\C(=N)N3N=C(S(C)(=O)=O)SC3=NC2=O)ccc1OC(=O)c1cccs1	109	96.7% (inactive)	–	minimum viability (at 0.2 µM, stronger effect = lower value): 86.5%
N#Cc1c(-c2ccccc2)nc(SCc2cccc(Cl)c2)[nH]c1=O	101	95.8% (inactive)	–	minimum viability (at 25 µM, stronger effect = lower value): 88%
CCCCCc1c2c(cc(O)c1C(=O)O)OC(=O)c1c(cc(OC)cc1C(=O)CCCC)O2	82	84.4% (inactive)	84.4	–
COc1cc(/C=C2\SC(=Nc3ccccc3)N(CCc3c[nH]c4ccccc34)C2=O)ccc1OC(C)C(=O)O (configuration not stated)	103	–	–	viability (at 25 µM (top of the series)): 101% (inactive); minimum viability (at 6.25 µM, stronger effect = lower value): 95.5%
O=C(COc1ccc(Cl)cc1)Nc1cc(NC(=O)COc2ccc(Cl)cc2)cc(C(=O)O)c1	99.5	105% (inactive)	–	minimum viability [2]: 98.6%
Cc1cc(/C=C2\C(=N)N3N=C(S(C)(=O)=O)SC3=NC2=O)c(C)n1Cc1ccccc1	116	110% (inactive)	–	minimum viability (at 25 µM, stronger effect = lower value): 106%
COC(=O)c1sc(-c2ccc(C(C)(C)C)cc2)cc1NC(=O)CSCC(=O)O	105	83.5% (inactive)	83.5	–
O=C(O)CN1C(=O)/C(=C\c2cc(Br)ccc2OCc2ccc(F)cc2)SC1=S	91.5	97.7% (inactive)	97.7	–
CCOc1cc(/C=C2\SC(=O)N(CC(=O)Nc3ccccc3F)C2=O)cc([N+](=O)[O-])c1O	114	–	77.4	–
CC(C)S(=O)(=O)C1=NSC2=NC(=O)/C(=C\c3ccc(-c4cccc(C(=O)O)c4)o3)C(=N)N21	90.9	101% (inactive)	–	minimum viability [3]: 85.2%
O=C(O)CCN1C(=O)/C(=C\c2cccc(OCC(=O)Nc3ccc(Cl)cc3)c2)SC1=S	88	–	73.5	–
Cc1ccc2nc(N3C(=O)C(O)=C(C(=O)c4ccco4)C3c3cccc(O)c3)sc2c1 (configuration not stated)	105	93.2% (inactive)	–	minimum viability [4]: 84.4%
O=C(O)c1ccccc1-c1ccccc1C(=O)Nc1ccc(-c2nc3cc(Cl)ccc3o2)cc1	80.5	–	56.8	–
CCOc1cc(/C=C2\SC(=S)N(C(C(=O)O)c3ccccc3)C2=O)ccc1O (configuration not stated)	90.8	96.9% (inactive)	–	minimum viability [3]: 85.8%
CCS(=O)(=O)C1=NN2C(=N)/C(=C\c3ccc(OS(=O)(=O)c4ccccc4)c(OC)c3)C(=O)N=C2S1	97.9	85.5% (inactive)	–	minimum viability [4]: 82.4%
CS(=O)(=O)C1=NSC2=NC(=O)/C(=C\c3ccc(OS(=O)(=O)c4ccccc4)cc3)C(=N)N21	89.2	–	–	viability (at 25 µM (top of the series)): 83.8% (inactive); minimum viability [2]: 83.1%
COc1ccc(-c2coc3c(C)c4oc(=O)c(CCC(=O)O)c(C)c4cc23)cc1	91.9	–	47.8	–
O=C(O)c1cc(-c2ccc(/C=C3\NC(=O)N(c4ccc(Cl)cc4)C3=O)o2)ccc1Cl	95.2	102% (inactive)	–	minimum viability (at 0.78 µM, stronger effect = lower value): 93.3%
CCC(Sc1nc2ccsc2c(=O)n1Cc1ccc(C(=O)O)cc1)C(=O)Nc1ccc(C)c(Cl)c1 (configuration not stated)	98	–	–	viability (at 25 µM (top of the series)): 93.6% (inactive); minimum viability [3]: 86.7%

SMILES	viability [1] [%]	viability (at 50 µM (top of the series))	minimum viability (at 50 µM, stronger effect = lower value) [%]	also measured
Cc1ccccc1N/N=C/c1sc(=O)n(Cc2cccc(C(=O)O)c2)c1Cl	109	–	72.9	–
O=C(O)c1cccc(-n2cccc2/C=C2/NC(=O)N(c3ccc(Cl)cc3)C2=O)c1	112	106% (inactive)	–	minimum viability [4]: 97.5%
COc1cc(Cl)cc(C(c2c(C(=O)O)[nH]c3ccccc23)c2c(C(=O)O)[nH]c3ccccc23)c1O	100	–	–	viability (at 25 µM (top of the series)): 80.5% (inactive); minimum viability (at 25 µM, stronger effect = lower value): 80.5%
COc1cccc(NS(=O)(=O)c2ccc3c(c2)C2C=CCC2C(c2ccc(C(=O)O)cc2)N3)c1 (configuration not stated)	120	108% (inactive)	–	minimum viability [4]: 88.6%
Cc1ccc(Cl)cc1N1CCN(C(=O)Cc2c(C(=O)O)[nH]c3ccc(Cl)cc23)CC1	98.9	91.8% (inactive)	–	minimum viability [2]: 85.7%
COc1ccccc1OCCOc1ccc(/C=C2\C(=N)N3N=C(S(C)(=O)=O)SC3=NC2=O)cc1	98.1	89.2% (inactive)	89.2	–
O=C(CCN1C(=O)/C(=C/c2ccco2)SC1=S)Nc1ccc(C(=O)O)c(O)c1	108	90.6% (inactive)	–	minimum viability [2]: 83%
Cc1ccc(F)c(NC(=O)/C(C#N)=C(\O)c2ccc(C(C)(C)C)cc2)c1	101	–	76.4	–
CCCCCNC(=O)c1ccc2c(=O)[nH]c3c(C(=O)NCC4CCCO4)sc(=S)n3c2c1 (configuration not stated)	105	–	–	minimum viability (at 25 µM, stronger effect = lower value): 69.3%
COc1ccc(C(=O)Nc2ccc(/C(C)=N/NC(=O)c3ccncc3)cc2)cc1	121	88.5% (inactive)	88.5	–
O=C(O)c1[nH]c2ccccc2c1C(c1cc(Br)ccc1O)c1c(C(=O)O)[nH]c2ccccc12	82	85.4% (inactive)	85.4	–
O=C(O)c1cc(NN=C2c3ccccc3-c3ccccc32)ccc1Cl	114	93.1% (inactive)	93.1	–
O=C(CCN1C(=O)/C(=C\C=C\c2ccccc2)SC1=S)Nc1ccccc1C(=O)O	121	–	74.5	–
CN1C(=O)/C(=C/c2ccc(C(=O)Nc3ccc(O)cc3C(=O)O)cc2)SC1=S	104	91% (inactive)	–	minimum viability [2]: 87.9%
COc1cc(/C=C2\SC(=O)N(CC(=O)Nc3cccc(C)c3)C2=O)cc([N+](=O)[O-])c1O	111	–	74.5	–
O=C1NC(=S)N(c2ccc(F)cc2)C(=O)/C1=C\c1ccoc1	99.5	84.8% (inactive)	84.8	–
O=C1/C(=C2\C(=O)N(Cc3ccc(F)cc3)c3ccccc32)SC(=S)N1CCS(=O)(=O)O	114	99.5% (inactive)	99.5	–
CCOC(=O)c1sc(N2C(=O)C(O)=C(C(=O)c3ccco3)C2c2ccc([N+](=O)[O-])cc2)nc1C (configuration not stated)	124	80.3% (inactive)	80.3	–
COc1cc(/C=C2\C(=N)N3N=C(S(C)(=O)=O)SC3=NC2=O)cc(OC)c1OCCOc1ccccc1C	124	106% (inactive)	–	minimum viability [2]: 102%
NC(=O)Cn1cc(C=C2C(=O)NC(=O)NC2=O)c2ccccc21	99.6	91.7% (inactive)	91.7	–
Cc1ccc(S(=O)(=O)/N=C2/NC(=O)/C(=C/c3cc([N+](=O)[O-])ccc3O)S2)cc1	99.3	86% (inactive)	86	–
